# Data published in the NIST ThermoML archive (doi:10.1016/j.jct.2006.10.016).
# Where “and” joins values, the source holds several entries; their conditions need not be identical. Equal entries are not always repeated. ± gives the expanded uncertainty stated by the source.
# Conditions: 101 kPa, Liquid
mass density (303.15 K) [kg/m3],viscosity (303.15 K) [mPa·s],mass density (308.15 K) [kg/m3],viscosity (308.15 K) [mPa·s],mass density (313.15 K) [kg/m3],viscosity (313.15 K) [mPa·s],mass density (318.15 K) [kg/m3],viscosity (318.15 K) [mPa·s],mass density (323.15 K),viscosity (323.15 K) [mPa·s],SMILES
1090.7 ± 2.9,1.832 ± 0.082,1084.7 ± 3,1.67 ± 0.076,1082.3 ± 3.2,1.537 ± 0.07,1075.1 ± 3.2,1.408 ± 0.065,1070.1 ± 3.4 kg/m3 and 1070 ± 3.4 kg/m3,1.289 ± 0.06,C[S+](C)[O-] [dimethyl sulfoxide]
795.5 ± 2,1.733 ± 0.078,791.1 ± 2.1,1.534 ± 0.07,787 ± 2.2,1.367 ± 0.063,783.3 ± 2.3,1.234 ± 0.058,779.5 ± 2.4 kg/m3,1.1 ± 0.052,CCCO [propan-1-ol]
776.4 ± 1.9,1.792 ± 0.081,772.6 ± 2,1.553 ± 0.071,768.6 ± 2.1,1.355 ± 0.062,763.9 ± 2.3,1.182 ± 0.055,758.8 ± 2.4 kg/m3,1.041 ± 0.049,CC(C)O [propan-2-ol]
